Results from patent US8895277B2, “Legume isoprene synthase for production of isoprene” (Danisco US Inc., priority 2012, dated 2014).

Legend:
[1] = target: Populus alba isoprene synthase, P. alba variant 2 (Populus alba, UniProt Q50L36); assay type: biochemical; details: substrate DMAPP; 34° C.; Avg Value
[2] = target: Populus alba isoprene synthase, P. alba variant 1 (Populus alba, UniProt Q50L36); assay type: biochemical; details: substrate DMAPP; 34° C.; Avg Value
[3] = tested on: E. coli expressing P. alba variant 1 IspS; assay: DMAPP toxicity relief: growth in presence of MVA; details: 15 to 75 mM MVA; FIG. 13
[4] = tested on: E. coli expressing P. alba variant 2 IspS
[5] = tested on: E. coli expressing P. alba variant 3 IspS; assay: DMAPP toxicity relief: growth in presence of MVA; details: FIG. 13
[6] = tested on: E. coli expressing A. hypogaea IspS; assay: DMAPP toxicity relief: growth in presence of MVA; details: FIG. 13
[7] = substrate: CC(C)=CCOP(=O)(O)OP(=O)(O)O; assay: purified protein, by the assay type; details: other: substrate DMAPP, 34° C., Avg Value

CC(C)=CCOP(=O)(O)OP(=O)(O)O [DMAPP, 3,3-dimethylallyl diphosphate]
Km [1]: 2880 µM
Km [2]: 2790 µM

C[C@@](O)(CCO)CC(=O)O [MVA, mevalonic acid]
Growth inhibition by MVA [3]: growth was inhibited at any concentration of MVA tested
MVA concentration at which growth was inhibited [4]: higher than 15 mM
MVA concentration at which growth was partially inhibited [5]: at least 30 mM
MVA concentration at which significant growth was seen [6]: 15 to 45 mM

B1: Arachis hypogaea isoprene synthase (A. hypogaea IspS), SEQ ID NO: 3 (Arachis hypogaea) (protein)
chain: MNTRRSANYQPNLWDFEFLQSVENDLQVERLEERARKLEEEVRGLMKKVEIEPLSLLELMDNVERLGLTYKFEEDIKSALNNRIVPLLHHHTINKYGLHATALSFRFLRQHAFHVSPDVFESFKEEGKFKKEISGDVLGLLNLYETSYLGFEGETILDEARAFSATHLKNLLQTNQVQNKVMAEKVRHALELPYHRRVHRLEARWFIERYEQKEAHDGALLELAKLDFNMVQSVMKKELQELSRWWREIGLTSKLDFVRDRLMEVYFWALGMAPHPQLTECRKAVTKMFGLVTIIDDVYDVYGTLDELQLFTDAVDRWDVNAVETLPDYMKLCYLALYNSVNDTAYSTLREKGDNSLPHLAKSWRDLCKAFLQEAKWSNNKIIPPFDAYIRNASVSSSGGALLAPCYFSVTQDSTSQAIDSITNYHGIVRSSCAIFRLCNDLATSAAELERGETTNSITSYMTENGTTEEEARESLGKLIDQEWKKMNRDVVLESAYPNVFKEIAINMARVSHCTYQYGDGLGRPDDTAENRIKLSLIEPIPIN
Km [7]: 18300 µM

B2: Populus alba isoprene synthase (P. alba IspS), wild type (WT) (Populus alba) (protein)
chain: MEARRSANYEPNSWDYDYLLSSDTDESIEVYKDKAKKLEAEVRREINNEKAEFLTLLELIDNVQRLGLGYRFESDIRGALDRFVSSGGFDAVTKTSLHGTALSFRLLRQHGFEVSQEAFSGFKDQNGNFLENLKEDIKAILSLYEASFLALEGENILDEAKVFAISHLKELSEEKIGKELAEQVNHALELPLHRRTQRLEAVWSIEAYRKKEDANQVLLELAILDYNMIQSVYQRDLRETSRWWRRVGLATKLHFARDRLIESFYWAVGVAFEPQYSDCRNSVAKMFSFVTIIDDIYDVYGTLDELELFTDAVERWDVNAINDLPDYMKLCFLALYNTINEIAYDNLKDKGENILPYLTKAWADLCNAFLQEAKWLYNKSTPTFDDYFGNAWKSSSGPLQLVFAYFAVVQNIKKEEIENLQKYHDTISRPSHIFRLCNDLASASAEIARGETANSVSCYMRTKGISEELATESVMNLIDETWKKMNKEKLGGSLFAKPFVETAINLARQSHCTYHNGDAHTSPDELTRKRVLSVITEPILPFER
Km [7]: 2830 µM
